Values joined by “and” are separate entries in the source; they are usually repeats but may differ in a detail not shown here. Identical values can stand only once.
Legend:
Zap-70 = Zap-70 phosphorylation in CD4+ T cells of DR1/TCR transgenic mice (flow cytometry); type: cell-based, mouse; settings: APCs prepulsed with peptide; data not shown
RA PBMC [1] = test: APL A12 inhibition of IFNγ production by α1(II)-stimulated RA PBMC; type: cell-based, human; settings: for IFNy Stimulation Index: 144 h
Experimental: We assessed the ability of APL A12 added to cultures of PBMC to affect production of IFNγ and other Th1 and Th2 cytokines by the cultured PBMC stimulated with α1(II) from 18 RA patients, 16 of whom had known HLA DR B1 haplotypes. 16 of these patients were taking methothexate, 10 NSAIDS and 12 anti-TNF agents. One patient was taking Arava. Isolated PBMC were resuspended in Dulbecco's minimal essential medium containing penicillin (100 U/ml), streptomycin (100 μg/ml), 9% fetal calf serum (FCS), and non-essential amino acids thereafter referred to as “Complete Medium” at a concentration of 4×10^6 cells/ml. Aliquots (0.5 ml) of the cell suspension were dispensed into wells of 48 well tissue culture plates (NUNC, Roskilde, Denmark).

[2] = tested on: splenocytes and lymph node cells from DR1 Transgenic mice; test: Cytokine secretion by splenocytes and lymph node cells of DR1 Transgenic mice immunized with CII or Analog A12; type: cell-based, mouse
Excerpt: One of the most important characteristics of the A12 analog peptide was its ability to induce a Th2-type cytokine secretion profile. In this set of experiments, DR1 transgenic mice were immunized with A12 peptide or CII emulsified with CFA. […] In contrast, cells from mice immunized with CII generated predominantly a Th1 response to the wild-type peptide. […] The ability to induce the secretion of Th2 cytokines may explain the profound suppressive effects A12 has on the development of CIA.
One of the most important characteristics of the A12 analog peptide is its ability to reduce a Th1 cytokine profile and induce a Th2-type cytokine secretion profile in humans and in DR1 transgenic mice. In work we have published, DR1 transgenic mice were immunized with A12 peptide or CII emulsified with CFA. […] In contrast, cells from mice immunized with CII generated multiple cytokines, but predominantly a Th1 response to the wild-type peptide. Importantly, although immunized with CII, they responded to A12 with only a Th2 response.

[3] = tested on: Spleen tyrosine kinase (Syk); test: Syk phosphorylation in CD4+ T cells of DR1/TCR transgenic mice (flow cytometry); type: cell-based, mouse; settings: APCs prepulsed with peptide, compared with media controls
Excerpt: Since T cells clearly responded to A12 differently than to the wild type A2 peptide, we analyzed them for the possibility that they might be utilizing an alternative signaling pathway. Spleen tyrosine kinase (Syk), a kinase ordinarily utilized by B cells was selected for further analysis. In these experiments, CD4^+ T-cells from the DR1/TCR transgenic mice were purified by negative selection (using a Miltenyi kit) and stained with an antibody specific for phospho Syk following exposure to APCs prepulsed with either A2 or A12. […] Histograms were generated using flow cytometry with gating specifically on the CD4^+ population, confirming that the changes observed were produced by T-cells.
FIGS. 5A and 5B show T cell signaling induced by A2 and A12. Flow cytometry was performed using purified CD4+ T cells from spleens of DR1 TCR Tg mice. The T cells were stimulated by APCs pre-pulsed with A2, A12 or no peptide (Control) for 5 minutes. The cells were then fixed, permeabilized, and stained with an antibody specific for phospho-Syk (Tyr 323) (left panel) or phospho-ERK 1/2 (right panel) and analyzed by flow cytometry. Both plots are gated on CD4 T cells. Axes 510, 540, show the number of events and axes 515, 545 show a logarithmic scale for Anti-phospho Erk and Syk respectively, for FIGS. 5A and 5B. In FIG. 5A line 520 is for A2 peptide, line 525 is the control, and line 530 is the A12 peptide. […]

RA PBMC [4] = test: Stability of HC Peptide 1 stored at 4° C., tested on IFNγ production by RA PBMC; type: cell-based, human
Experimental: Approximately 70% of the patients screened should have one or more of the RA shared epitope alleles. If the trend we saw in the small preliminary data sample holds true for the larger sample size, the majority of APL A12 responders will have one or more of the shared epitopes. […] Each month we will prepare a fresh stock solution of APL A12 dissolved in PBS, filter sterilized and stored at 4° C. APL A12 stored at 4° C. in solution retains it biologic activity for >30 days. A fresh solution of α1(II) will also be prepared each month and stored at 4° C. and handled using sterile technique.
HC Peptide 1 was dissolved in phosphate buffered saline and stored at 4° C. for up to five months and then tested and compared in vitro with freshly prepared HC Peptide 1 to inhibit IFNγ production by RA patients PBMC stimulated by α1(II).

DR1 Transgenic mice = test: Oral (gavage) APL A12 suppression of CIA in DR1 transgenic mice; type: in vivo, mouse; settings: for arthritis severity: FIG. 1
[5] = tested on: splenocytes of DR1 transgenic mice; test: Oral APL A12: IFNγ production by cultured splenocytes of DR1 transgenic mice; type: in vivo, mouse
[6] = Immunogen Analog A12, cultured with 100 μg/ml A12
[7] = Immunogen Analog A12, cultured with 100 μg/ml PPD
[8] = Immunogen Analog A12, cultured with 100 μg/ml Wild-type Peptide
[9] = Immunogen Analog A12, cultured with 100 μg/ml α1(II)
[10] = Immunogen CII, cultured with 100 μg/ml A12

## LGPKGQTGEBGIAGAKGDQGPKGEBGPA [APL A12]
Zap-70
  Zap-70 phosphorylation: little effect
RA PBMC [1]; APL A12 alone, without α1(II), data not shown
  IFNγ production by RA PBMC: no change from PBS control
RA PBMC [1]; NIH oral CII study
  RA patients who responded to APL A12 in vitro: 50%
RA PBMC [1]; patients with the RA susceptibility shared epitope
  patients with IFNγ production down-regulated by ≧50%: 7 of 10
RA PBMC [1]; patients without the shared epitopes
  patients with IFNγ production down-regulated by ≧50%: 2 of 6
RA PBMC [1]; α1(II) + APL A12 1 μg/ml, individual patients with No Shared Epitope
  IFNy Stimulation Index: 49 and 45 and 1120 and 928 and 586 and 75
RA PBMC [1]; α1(II) + APL A12 1 μg/ml, individual patients with Shared Epitope
  IFNy Stimulation Index: 139 and 49 and 742 and 908 and 3190 and 85 and 203 and −65 and −74
RA PBMC [1]; α1(II) + APL A12 1 μg/ml, individual patients, HLA Unknown
  IFNy Stimulation Index: 42 and 228
RA PBMC [1]; α1(II) + APL A12 10 μg/ml, individual patients with No Shared Epitope
  IFNy Stimulation Index: 12 and −3 and 1220 and 807 and 479 and 91
RA PBMC [1]; α1(II) + APL A12 10 μg/ml, individual patients with Shared Epitope
  IFNy Stimulation Index: 291 and 68 and 37 and 1220 and 644 and 2111 and 93 and 110 and −54 and −66
RA PBMC [1]; α1(II) + APL A12 10 μg/ml, individual patients, HLA Unknown
  IFNy Stimulation Index: 73 and 180
RA PBMC [1]; α1(II) + APL A12 25 μg/ml, individual patients with No Shared Epitope
  IFNy Stimulation Index: 16 and 50 and 934 and 778 and 357 and 106
RA PBMC [1]; α1(II) + APL A12 25 μg/ml, individual patients with Shared Epitope
  IFNy Stimulation Index: 15 and 113 and 123 and 493 and 1350 and 2620 and 154 and 83 and −24 and 1
RA PBMC [1]; α1(II) + APL A12 25 μg/ml, individual patients, HLA Unknown
  IFNy Stimulation Index: 121 and 214
[2]; [6]
  IFN-γ: 0 pg/mL
  IL-10: 808 pg/mL
  Il-4: 31 pg/mL
[2]; [7]
  IFN-γ: 2,225 pg/ml
  IL-10: 248 pg/mL
  Il-4: 0 pg/mL
[2]; [8]
  IFN-γ: 175 pg/mL
  IL-10: 792 pg/mL
  Il-4: 23 pg/mL
[2]; [9]
  IFN-γ: 0 pg/mL
  IL-10: 680 pg/mL
  Il-4: 45 pg/mL
[2]; [10]
  IFN-γ: 0 pg/mL
  IL-10: 610 pg/mL
  Il-4: 40 pg/mL
[3]
  Syk phosphorylation: induced significant Syk phosphorylation
RA PBMC [4]; A12 0.1 μg/ml + PBS, A12 stored at 4° C. 6 Days
  IFNγ Concentration in PBMC Supernatants: 26 pg/mL
RA PBMC [4]; A12 0.1 μg/ml + PBS, A12 stored at 4° C. 78 Days
  IFNγ Concentration in PBMC Supernatants: 0 pg/mL
RA PBMC [4]; A12 0.1 μg/ml + PBS, A12 stored at 4° C. 143 Days
  IFNγ Concentration in PBMC Supernatants: 0 pg/mL
RA PBMC [4]; A12 0.1 μg/ml + α1(II) 50 μg/ml, A12 stored at 4° C. 6 Days
  IFNγ Concentration in PBMC Supernatants: 45 pg/mL
RA PBMC [4]; A12 0.1 μg/ml + α1(II) 50 μg/ml, A12 stored at 4° C. 78 Days
  IFNγ Concentration in PBMC Supernatants: 10 pg/mL
RA PBMC [4]; A12 0.1 μg/ml + α1(II) 50 μg/ml, A12 stored at 4° C. 143 Days
  IFNγ Concentration in PBMC Supernatants: 22 pg/mL
RA PBMC [4]; A12 1 μg/ml + PBS, A12 stored at 4° C. 6 Days
  IFNγ Concentration in PBMC Supernatants: 10 pg/mL
RA PBMC [4]; A12 1 μg/ml + PBS, A12 stored at 4° C. 78 Days
  IFNγ Concentration in PBMC Supernatants: 0 pg/mL
RA PBMC [4]; A12 1 μg/ml + PBS, A12 stored at 4° C. 143 Days
  IFNγ Concentration in PBMC Supernatants: 0 pg/mL
RA PBMC [4]; A12 1 μg/ml + α1(II) 50 μg/ml, A12 stored at 4° C. 6 Days
  IFNγ Concentration in PBMC Supernatants: 23 pg/mL
RA PBMC [4]; A12 1 μg/ml + α1(II) 50 μg/ml, A12 stored at 4° C. 78 Days
  IFNγ Concentration in PBMC Supernatants: 37 pg/mL
RA PBMC [4]; A12 1 μg/ml + α1(II) 50 μg/ml, A12 stored at 4° C. 143 Days
  IFNγ Concentration in PBMC Supernatants: 6 pg/mL
RA PBMC [4]; A12 10 μg/ml + PBS, A12 stored at 4° C. 6 Days
  IFNγ Concentration in PBMC Supernatants: 0 pg/mL
RA PBMC [4]; A12 10 μg/ml + PBS, A12 stored at 4° C. 78 Days
  IFNγ Concentration in PBMC Supernatants: 0 pg/mL
RA PBMC [4]; A12 10 μg/ml + PBS, A12 stored at 4° C. 143 Days
  IFNγ Concentration in PBMC Supernatants: 0 pg/mL
RA PBMC [4]; A12 10 μg/ml + α1(II) 50 μg/ml, A12 stored at 4° C. 6 Days
  IFNγ Concentration in PBMC Supernatants: 77 pg/mL
RA PBMC [4]; A12 10 μg/ml + α1(II) 50 μg/ml, A12 stored at 4° C. 78 Days
  IFNγ Concentration in PBMC Supernatants: 82 pg/mL
RA PBMC [4]; A12 10 μg/ml + α1(II) 50 μg/ml, A12 stored at 4° C. 143 Days
  IFNγ Concentration in PBMC Supernatants: 21 pg/mL
RA PBMC [4]; dissolved in phosphate buffered saline, stored at 4° C. for up to 5 months
  stability: ability to inhibit IFNγ production by α1(II) stimulated RA PBMC after storage: retained its ability to inhibit IFNγ production
RA PBMC [4]; stored at 4° C. in solution (PBS)
  time for which biologic activity is retained: > 30 days
DR1 Transgenic mice; 10 μg gavaged 8 days over two weeks before CII immunization
  arthritis severity: significantly reduced
DR1 Transgenic mice; 50 μg gavaged 8 days over two weeks before CII immunization
  arthritis severity: significantly reduced
DR1 Transgenic mice; given orally by gavage
  most effective dose: 50 µg/day
DR1 Transgenic mice; low oral dose (10-50 μg), mice transgenic for human DR1
  development of arthritis induced by immunization with bovine CII: protects
DR1 Transgenic mice; mice bearing a transgene for human DR1
  CII induced arthritis: effective in reducing
[5]; mice gavaged with 50 μg APL A12 8 times over 2 weeks, splenocytes cultured with PBS
  IFNγ Levels in Splenocyte Culture: 2 ± 3 pg/mL
[5]; mice gavaged with 50 μg APL A12, splenocytes cultured with APL A12 50 μg/ml
  IFNγ Levels in Splenocyte Culture: 5 ± 10 pg/mL
[5]; mice gavaged with 50 μg APL A12, splenocytes cultured with CII263-270 50 μg/ml
  IFNγ Levels in Splenocyte Culture: 12 ± 20 pg/mL
[5]; mice gavaged with PBS, splenocytes cultured with APL A12 50 μg/ml
  IFNγ Levels in Splenocyte Culture: 65 ± 52 pg/mL
